Holding throughout (assay): F420H2 oxidation followed at […] nm, anaerobic
Holding throughout (assay type): biochemical

The target of test [1] is T1, jMer (F420-dependent methylene-H4MPT reductase from Methanocaldococcus jannaschii) (Methanocaldococcus jannaschii, UniProt Q58929, E6Q, form not given).
T1 construct: gene mer; pT7-7_jMer in E. coli ArcticExpress (DE3); no tag mentioned; heat step and column purification; homodimer ~80 kDa
The note with it: 20 μM F420H2, 100 mM Tris/HCl pH 8.0, 55°C; read-out: App. K m.

Test [2] has as its target T2, jMer (F420-dependent methylene-H4MPT reductase from Methanocaldococcus jannaschii) (Methanocaldococcus jannaschii, UniProt Q58929).
T2 construct: gene mer; pT7-7_jMer in E. coli ArcticExpress (DE3); no tag mentioned; heat step and column purification; homodimer ~80 kDa
As to conditions: 20 μM F420H2, 100 mM Tris/HCl pH 8.0, 55°C; read-out: App. K m.

The target of test [3] is T3, jMer (F420-dependent methylene-H4MPT reductase from Methanocaldococcus jannaschii) (Methanocaldococcus jannaschii, UniProt Q58929, D96N, form not given).
T3 construct: gene mer; pT7-7_jMer in E. coli ArcticExpress (DE3); no tag mentioned; heat step and column purification; homodimer ~80 kDa
T3 sequence (Q58929 whole entry D96N, form open): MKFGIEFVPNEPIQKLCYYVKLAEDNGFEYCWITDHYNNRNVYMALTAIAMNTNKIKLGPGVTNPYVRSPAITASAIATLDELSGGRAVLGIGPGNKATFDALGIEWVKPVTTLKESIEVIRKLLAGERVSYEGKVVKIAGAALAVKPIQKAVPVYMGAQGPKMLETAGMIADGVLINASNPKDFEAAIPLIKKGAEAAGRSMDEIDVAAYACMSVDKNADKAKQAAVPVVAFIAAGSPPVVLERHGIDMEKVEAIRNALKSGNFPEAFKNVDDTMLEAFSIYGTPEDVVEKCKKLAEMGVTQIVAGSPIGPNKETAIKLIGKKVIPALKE
The note with it: 20 μM F420H2, 100 mM Tris/HCl pH 8.0, 55°C; read-out: App. K m.

For test [4], the target named is T2, jMer (F420-dependent methylene-H4MPT reductase from Methanocaldococcus jannaschii). The note with it: 20 μM F420H2, 100 mM Tris/HCl pH 8.0, 55°C; methylene-H4MPT made in situ from H4MPT and 15 mM formaldehyde; read-out: App. K m.

Each structure is given as a SMILES string. Like-named read-outs stand apart in the source and are kept apart here.

T2 sequence (Q58929 whole entry): as the sequence (Q58929 whole entry D96N, form open) above, with N96D counted along it
T1 sequence (Q58929 whole entry E6Q, form open): as the sequence (Q58929 whole entry D96N, form open) above, with E6Q, N96D counted along it

Take `C[C@@H]1Nc2nc(N)[nH]c(=O)c2N2CN(c3ccc(C[C@H](O)[C@H](O)[C@H](O)CO[C@H]4O[C@H](COP(=O)(O)O[C@@H](CCC(=O)O)C(=O)O)[C@@H](O)[C@H]4O)cc3)[C@H](C)[C@@H]12` [Methylene‐H4MPT]: the Km came out at 34 ± 10 µM in test [1], 20 ± 5 µM in test [2], 140 ± 30 µM in test [3] and 58 ± 29.7 µM in test [4].

The values are drawn from article PMC11094777, “Mutational and structural studies of (βα)8‐barrel fold methylene‐tetrahydropterin reductases utilizing a common catalytic mechanism” (Protein Science : A Publication of the Protein Society, 2024).
